# Reference: patent US20170226139A1, “CRYSTALLINE SALTS OF (Z)-O-OCTADEC-9-EN-1-YL O,O-DIHYDROGEN PHOSPHOROTHIOATE” (priority 2013, published 2017)
# Marks after values point to notes of the source that are not given here.
# Experiments:
# [1] = test system: C57BL/6 murine Animal Model of GI-ARS; assay: Survival after partial body irradiation (tibial sparing), murine Animal Model of GI-ARS (Studies 4.1.4, 4.1.5, 4.1.8); type: in vivo, C57BL/6 mice; settings: for Survival Day 10, Rx100 arm (survivors/animals) / Survival Day ≧30, Rx100 arm (survivors/animals) / Survival Advantage Day 10 / Survival Advantage Day ≧30: Murine (♀), start +24; for Survival Advantage Day 10 / Survival Advantage Day ≧30 / Survival advantage 0.3 mg/kg / Survival advantage 3 mg/kg / Survival advantage: vs vehicle; for Survival, 0.3 mg/kg / Survival, 3 mg/kg / Survival advantage 0.3 mg/kg / Survival advantage 3 mg/kg: Study 4.1.4, Phase 2 + 3; for Survival, 0.3 mg/kg / Survival, 3 mg/kg: q12 h × 6 from 24 h after PBI; for Survival advantage / Survival, Rx100 at 3 mg/kg/12 × 6: Study 4.1.8, Phase 1 + 2, female C57BL/6; for Survival advantage: 3 mg/kg/12 h × 6
# Protocol: These Animal Model studies were all conducted using partial body irradiation (PBI) with tibial bone marrow sparing except the earliest study which was performed with Total Abdominal Irradiation (TAI). The male Rhesus macaque model was developed by MacVittie. The female inbred murine PBI GI-ARS Animal Model was developed by the inventors. […] Differences in radiation sensitivity by gender in rodent species are well appreciated. We are not aware of PBI GI-ARS models other than these that meet criteria required to conduct a prospective, blinded, controlled, randomized study of efficacy.
# A synopsis from each of the completed three sequential efficacy studies in the C57BL/6 murine partial body irradiation model of GI-ARS is provided below. […] Study WBS 4.1.8 was a pilot study of the efficacy of Rx100 at the preferred dose and regimen. The latter two studies (4.1.5) and 4.1.8) were blinded, randomized and controlled. The former study was not blinded but was controlled and randomized (WBS 4.1.4).
# Study was initiated on Feb. […] Experiments were started on Feb.
# Phase 1 (n=32 per group per sex) was designed as an expanded pilot dose-ranging study (0.3, 1.0, 3.0, and 10 mg/kg) to select two Rx100 doses for additional testing in phases 2 and 3. Phases 2 and 3 (enrolled n=64 per group per gender) were conducted at the selected Rx100 doses (0.3 and 3.0 mg/kg) to ensure sufficient sample size to power an assessment of survival advantage. The latter study was conducted in two phases based on facility limitations (up to 120 animals can be handled readily in one radiation sequence). […] A higher radiation dose was used in Phases 2 and 3 and two intermediate doses selected empirically (0.3 and 3.0 mg/kg). The study was carried out to 30 days post irradiation in all phases. The primary endpoint in this study was survival at Day 10. The modified intent-to-treat primary study population was defined as those animals that survived anesthesia following irradiation. Survival advantage was calculated as the percent survival in the active arm minus the percent survival in the vehicle arm for males and females separately with pairwise comparison by Chi-Square as a test of significance without adjustment for multiple testing. Significance was declared at the 0.05 level (two-sided). […] See Kaplan-Meier FIG. 32.
# The study was initiated on Apr. […] Experiments were started on Apr.
# Under the study design, four radiation doses were selected for vehicle administration. […] The study was performed in female mice only. […] Animals were randomized but stratified by weight to assure equivalent weights in each arm. The study was conducted in two phases to assure adequate subject numbers based on limitations on the number of animals that can be processed per phase (120). The primary endpoint in this study was survival at Day 10 but the study was carried out to Day 30.
# Male Sprague-Dawley rats = assay: Respiratory system safety pharmacology (plethysmograph); type: in vivo
# Protocol: Male Sprague-Dawley rats (n=6/group) were administered Rx100.lysine as a single oral (gavage) doses of 0 (10 mM histidine in sterile water for injection, USP), 1.81, 6.33, and 18.1 mg/kg and monitored for respiratory function. Animals were placed in a plesthymograph and monitored at pre-dose and for consecutive 30 minute averages beginning 30 minutes postdose through 6 hours postdose and again at 24 hours postdose. Parameters evaluated included tidal volume, respiratory rate and minute volume. […] It was concluded that there were no adverse effects on the respiratory system in rats at doses of 1.81 mg/kg.
# [2] = Rx Bio 415, 3 mg/kg (q12 × 6), 15.62-64 Gy
# [3] = RxBio 414, 0.3 mg/kg (q12 × 6), 15.65-8 Gy
# [4] = RxBio 414, 3 mg/kg (q12 × 6), 15.65-8 Gy
# [5] = RxBio 418F, 3 mg/kg (q12 × 6), 15.55-67 Gy (pooled)
# [6] = RxBio 418F, 3 mg/kg (q12 × 6), 15.55 Gy
# [7] = RxBio 418F, 3 mg/kg (q12 × 6), 15.62 Gy
# [8] = RxBio 418F, 3 mg/kg (q12 × 6), 15.67 Gy
# [9] = Study 4.1.5, female, 3 mg/kg q12 h×6 starting 24 hours after PBI
compound,measurement,setting,value
"CCCCCCCC/C=C\CCCCCCCCOP(O)(O)=S [Rx100, (Z)—O-octadec-9-en-1-yl O,O-dihydrogen phosphorothioate]","Survival Day 10, Rx100 arm (survivors/animals)",[1]; [2],18/32
same,"Survival Day ≧30, Rx100 arm (survivors/animals)",[1]; [2],9/32
same,Survival Advantage Day 10,[1]; [2],50%
same,Survival Advantage Day ≧30,[1]; [2],28%
same,"Survival Day 10, Rx100 arm (survivors/animals)",[1]; [3],29/60
same,"Survival Day ≧30, Rx100 arm (survivors/animals)",[1]; [3],20/60
same,Survival Advantage Day 10,[1]; [3],5%
same,Survival Advantage Day ≧30,[1]; [3],23%
same,"Survival Day 10, Rx100 arm (survivors/animals)",[1]; [4],41/64
same,"Survival Day ≧30, Rx100 arm (survivors/animals)",[1]; [4],23/64
same,Survival Advantage Day 10,[1]; [4],23%
same,Survival Advantage Day ≧30,[1]; [4],26%
same,"Survival Day 10, Rx100 arm (survivors/animals)",[1]; [5],52/105
same,"Survival Day ≧30, Rx100 arm (survivors/animals)",[1]; [5],42/105
same,Survival Advantage Day 10,[1]; [5],32%
same,Survival Advantage Day ≧30,[1]; [5],25%
same,"Survival Day 10, Rx100 arm (survivors/animals)",[1]; [6],16/34
same,"Survival Day ≧30, Rx100 arm (survivors/animals)",[1]; [6],13/34
same,Survival Advantage Day 10,[1]; [6],25%
same,Survival Advantage Day ≧30,[1]; [6],22%
same,"Survival Day 10, Rx100 arm (survivors/animals)",[1]; [7],21/36
same,"Survival Day ≧30, Rx100 arm (survivors/animals)",[1]; [7],17/36
same,Survival Advantage Day 10,[1]; [7],47%
same,Survival Advantage Day ≧30,[1]; [7],39%
same,"Survival Day 10, Rx100 arm (survivors/animals)",[1]; [8],15/35
same,"Survival Day ≧30, Rx100 arm (survivors/animals)",[1]; [8],12/35
same,Survival Advantage Day 10,[1]; [8],23%
same,Survival Advantage Day ≧30,[1]; [8],14%
same,"Survival, 0.3 mg/kg","[1]; Females, Day 10",48.3% (29/60)
same,"Survival, 3 mg/kg","[1]; Females, Day 10",64.1% (41/64)
same,Survival advantage 0.3 mg/kg,"[1]; Females, Day 10",7.3%
same,Survival advantage 3 mg/kg,"[1]; Females, Day 10",23.1%*
same,"Survival, 0.3 mg/kg","[1]; Females, Day 30",33.3% (20/60)
same,"Survival, 3 mg/kg","[1]; Females, Day 30",35.9% (23/41)
same,Survival advantage 0.3 mg/kg,"[1]; Females, Day 30",23.5%*
same,Survival advantage 3 mg/kg,"[1]; Females, Day 30",26.1%*
same,"Survival, 0.3 mg/kg","[1]; Males, Day 10",38.2% (21/55)
same,"Survival, 3 mg/kg","[1]; Males, Day 10",41.4% (24/58)
same,Survival advantage 0.3 mg/kg,"[1]; Males, Day 10",−2.2%
same,Survival advantage 3 mg/kg,"[1]; Males, Day 10",1.0%
same,"Survival, 0.3 mg/kg","[1]; Males, Day 30",12.7% (7/55)
same,"Survival, 3 mg/kg","[1]; Males, Day 30",17.2% (10/58)
same,Survival advantage 0.3 mg/kg,"[1]; Males, Day 30",−17.1%
same,Survival advantage 3 mg/kg,"[1]; Males, Day 30",12.6%
same,increase in survival at Day 10,"[1]; Study 4.1.4, female, 0.3 mg/kg/12 h/6, not statistically significant",7.3%
same,survival advantage at Day 10,"[1]; Study 4.1.4, female, 3 mg/kg/12 h×6 starting 24 hours after PBI, statistically significant",23.1%
same,survival benefit by Day 30,"[1]; Study 4.1.4, female, both 0.3 mg/kg and 3 mg/kg",a benefit was seen
same,survival benefit in male animals,"[1]; Study 4.1.4, male",no survival benefit
same,survival advantage at Day 10,[1]; [9],50%
same,survival advantage through Day 30,[1]; [9],28%
same,efficacy with delayed start of dosing,"[1]; Study 4.1.5, female, dosing started ≧48 hours after radiation",Efficacy was not seen
same,efficacy and toxicity in male mice,"[1]; Study 4.1.5, male, 3 mg/kg q12 h×6",neither efficacy nor toxicity was seen
same,Survival advantage,"[1]; 15.55 Gy, Day 10",24.9%*
same,Survival advantage,"[1]; 15.55 Gy, Day 30",21.5%*
same,Survival advantage,"[1]; 15.62 Gy, Day 10",47.2%*
same,Survival advantage,"[1]; 15.62 Gy, Day 30",38.9%*
same,Survival advantage,"[1]; 15.67 Gy, Day 10",22.9%*
same,Survival advantage,"[1]; 15.67 Gy, Day 30",14.3%
same,"Survival, Rx100 at 3 mg/kg/12 × 6","[1]; 15.55 Gy, Day 10",47.1%
same,"Survival, Rx100 at 3 mg/kg/12 × 6","[1]; 15.55 Gy, Day 30",38.2%
same,"Survival, Rx100 at 3 mg/kg/12 × 6","[1]; 15.62 Gy, Day 10",58.3
same,"Survival, Rx100 at 3 mg/kg/12 × 6","[1]; 15.62 Gy, Day 30",47.2%
same,"Survival, Rx100 at 3 mg/kg/12 × 6","[1]; 15.67 Gy, Day 10",42.9%
same,"Survival, Rx100 at 3 mg/kg/12 × 6","[1]; 15.67 Gy, Day 30",34.3%
same,survival advantage at Day 10 and Day 30,"[1]; Study 4.1.8, female, 3 mg/kg q12 h×6 starting at 24 hours after PBI",clinically and statistically significant survival advantage
same,Day 10 survival,"[1]; females, treatment administered starting at 24 hours after radiation",56.3%
same,survival,"[1]; male mice, comparable group",72%
"CCCCCCCC/C=C\CCCCCCCCOP(O)(O)=S [Rx100.L-Lysine, (Z)—O-octadec-9-en-1-yl O,O-dihydrogen phosphorothioate]",effects on respiratory parameters,Male Sprague-Dawley rats; 1.81 mg/kg,No statistically significant or biologically meaningful effects
same,increase in respiratory rates,Male Sprague-Dawley rats; 6.33 mg/kg,68%
same,reduction in tidal volume,Male Sprague-Dawley rats; 6.33 mg/kg,29%
same,respiratory values 24 hours post dose,Male Sprague-Dawley rats; 6.33 mg/kg,essentially normal
same,increase in respiratory rates,Male Sprague-Dawley rats; 18.1 mg/kg,65%
same,reduction in tidal volume,Male Sprague-Dawley rats; 18.1 mg/kg,32%
same,respiratory values 24 hours post dose,"Male Sprague-Dawley rats; 18.1 mg/kg, reduced in magnitude",still showed effects
same,dose with no adverse effects on the respiratory system,"Male Sprague-Dawley rats; male, Sprague-Dawley, rat, in vivo, oral, 24 h",1.81 mg/kg
